Test results as given in ChEMBL document CHEMBL5370624 (J Med Chem, 2023).
The source made the active and inactive calls. No cut-off for these calls is given here.

Legend:
[1] = molecular target: T1, Toll-like receptor 4 (Homo sapiens, UniProt O00206); experiment: Agonist activity at human TLR4 in human HEK-Blue hTLR4 cells assessed as NF-kappaB activation incubated for 48 hrs by SEAP reporter gene based Quanti-blue assay; assay type: cell-based
[2] = molecular target: T2, Toll-like receptor 4 (Mus musculus, UniProt Q9QUK6); experiment: Agonist activity at mouse TLR4 in human HEK-Blue mTLR4 cells assessed as NF-kappaB activation incubated for 48 hrs by SEAP reporter gene based Quanti-blue assay; assay type: cell-based
T2 sequence (Q9QUK6 whole entry): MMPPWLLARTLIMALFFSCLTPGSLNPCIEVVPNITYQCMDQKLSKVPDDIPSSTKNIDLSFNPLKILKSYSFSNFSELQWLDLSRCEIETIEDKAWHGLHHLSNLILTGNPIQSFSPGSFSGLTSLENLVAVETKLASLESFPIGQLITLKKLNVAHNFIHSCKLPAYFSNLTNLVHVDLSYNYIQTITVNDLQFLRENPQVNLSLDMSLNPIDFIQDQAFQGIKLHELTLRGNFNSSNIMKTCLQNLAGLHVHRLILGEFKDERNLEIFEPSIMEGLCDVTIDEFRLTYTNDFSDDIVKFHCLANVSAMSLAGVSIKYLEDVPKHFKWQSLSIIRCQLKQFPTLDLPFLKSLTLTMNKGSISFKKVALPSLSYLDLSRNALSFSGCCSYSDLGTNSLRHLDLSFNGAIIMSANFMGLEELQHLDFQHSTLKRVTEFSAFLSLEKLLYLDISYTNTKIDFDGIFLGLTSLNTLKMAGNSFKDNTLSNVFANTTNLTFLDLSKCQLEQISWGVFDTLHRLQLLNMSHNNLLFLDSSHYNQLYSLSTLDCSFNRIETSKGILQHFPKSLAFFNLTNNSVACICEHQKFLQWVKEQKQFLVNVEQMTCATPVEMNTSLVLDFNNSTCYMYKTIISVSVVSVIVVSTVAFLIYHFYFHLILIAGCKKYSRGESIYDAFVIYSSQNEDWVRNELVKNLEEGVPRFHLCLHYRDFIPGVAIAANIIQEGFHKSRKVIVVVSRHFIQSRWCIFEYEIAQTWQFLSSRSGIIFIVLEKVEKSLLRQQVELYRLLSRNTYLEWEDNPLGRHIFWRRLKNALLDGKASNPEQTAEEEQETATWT

[3] = molecular target: T1, Toll-like receptor 4; experiment: Agonist activity at TLR4 in human MONO-MAC-6 cells assessed as induction of MIP-1beta release incubated for 24 hrs by ELISA; assay type: cell-based
[4] = molecular target: T1, Toll-like receptor 4; experiment: Agonist activity at TLR4 in human PBMC cells assessed as induction of RANTES release incubated for 20 hrs by ELISA; assay type: cell-based
[5] = molecular target: T2, Toll-like receptor 4; experiment: Agonist activity at TLR4 in mouse RAW264.7 cells assessed as induction of MIP-1beta release incubated for 24 hrs by ELISA; assay type: cell-based
[6] = molecular target: T1, Toll-like receptor 4; experiment: Agonist activity at TLR4 in human PBMC cells assessed as induction of TNFalpha release incubated for 20 hrs by ELISA; assay type: cell-based
[7] = molecular target: T1, Toll-like receptor 4; experiment: Agonist activity at TLR4 in human PBMC cells assessed as induction of MIP-1beta release incubated for 20 hrs by ELISA; assay type: cell-based
[8] = molecular target: T1, Toll-like receptor 4; experiment: Agonist activity at TLR4 in human PBMC cells assessed as induction of IL-1beta release incubated for 20 hrs by ELISA; assay type: cell-based
[9] = system: Mus musculus; experiment: Immuno-adjuvant activity in H3N2-split A/Victoria/210/2009 influenza virus-immunized BALB/c mouse model assessed as increase in influenza specific serum IgG2a titer level at 0.001 to 0.1 ug,IM administered on day 0 and 14 and measured after 28 days by ELISA; assay type: functional, organism-based; details: dose 0.001-0.1 µg, time 28.0 day
[10] = Aqueous stability of the compound assessed as drug degradation at 2 to 8 degreeC and measured upto 12 months by LC-MS analysis; assay type: physicochemical; details: buffer, 8760 h
[11] = Toxicity in H3N2-A/HK/68 influenza virus-immunized BALB/c mouse model assessed as body weight change at 1 to 10 ug,INH administered 48hrs prior to influenza challenge and measured after 18 days; details: in vivo, inhaled_or_intranasal, 432 h, dose 1-10 µg, time 18 day
[12] = Aqueous stability of the compound assessed as drug degradation at 40 degreeC and measured upto 12 months by LC-MS analysis; assay type: physicochemical; details: buffer, 8760 h
[13] = Toxicity in H3N2-A/HK/68 influenza virus-immunized BALB/c mouse model assessed as disease index at 1 to 10 ug,INH administered 48hrs prior to influenza challenge and measured after 18 days; details: in vivo, inhaled_or_intranasal, 432 h, dose 1-10 µg, time 18 day
[14] = system: PBMC; experiment: Cytotoxicity against human PBMC cells assessed as reduction in cell viability upto 10 ug/ml incubated for 18 to 24 hrs by PrestoBlue reagent based assay; assay type: toxicity; details: time 18-24 hrs, dose < 10 µg/ml
[15] = system: Mus musculus; experiment: Immuno-adjuvant activity in H3N2-split A/Victoria/210/2009 influenza virus-immunized BALB/c mouse model assessed as increase in influenza specific serum IgG titer level at 0.001 to 0.1 ug,IM administered on day 0 and 14 and measured after 28 days by ELISA; assay type: functional, organism-based; details: dose 0.001-0.1 µg, time 28.0 day
[16] = Toxicity in H3N2-split A/Victoria/210/2009 influenza virus-immunized BALB/c mouse model assessed as reactogenicity at 0.001 to 0.1 ug,IM administered on day 0 and 14 and measured after 28 days; details: in vivo, 672 h, dose 0.001-0.1 µg, time 28 day
[17] = species on record: Mus musculus; experiment: Immuno-adjuvant activity in H3N2-split A/Victoria/210/2009 influenza virus-immunized BALB/c mouse model assessed as increase in influenza specific serum IgG1 titer level at 0.001 to 0.1 ug,IM and measured after 14 days by ELISA; assay type: functional, organism-based; details: dose 0.001-0.1 µg, time 14.0 day
[18] = system: Mus musculus; experiment: Immuno-adjuvant activity in H3N2-split A/Victoria/210/2009 influenza virus-immunized BALB/c mouse model assessed as increase in influenza specific serum IgG1 titer level at 0.001 to 0.1 ug,IM administered on day 0 and 14 and measured after 28 days by ELISA; assay type: functional, organism-based; details: dose 0.001-0.1 µg, time 28.0 day
[19] = Aqueous stability of the compound assessed as drug degradation at 2 to 8 degreeC and measured upto 12 months by RP-HPLC analysis; assay type: physicochemical; details: buffer, 8760 h
[20] = system: Mus musculus; experiment: Immuno-adjuvant activity in H3N2-A/HK/68 influenza virus-immunized BALB/c mouse model assessed as increase in survival rate at 1 ug,INH administered 48hrs prior to influenza challenge and measured after 18 days; assay type: functional; details: dose 1 µg, time 18 day
[21] = Toxicity in H3N2-A/HK/68 influenza virus-immunized BALB/c mouse model assessed as change in body temperature at 1 to 10 ug,INH administered 48hrs prior to influenza challenge and measured after 18 days; details: in vivo, inhaled_or_intranasal, 432 h, dose 1-10 µg, time 18 day
[22] = species on record: Mus musculus; experiment: Immuno-adjuvant activity in H3N2-split A/Victoria/210/2009 influenza virus-immunized BALB/c mouse model assessed as increase in influenza specific serum IgG titer level at 0.001 to 0.1 ug,IM and measured after 14 days by ELISA; assay type: functional, organism-based; details: dose 0.001-0.1 µg, time 14.0 day
[23] = Toxicity in H3N2-split A/Victoria/210/2009 influenza virus-immunized BALB/c mouse model assessed as abnormality at 0.001 to 0.1 ug,IM administered on day 0 and 14 and measured after 28 days; details: in vivo, 672 h, dose 0.001-0.1 µg, time 28 day
[24] = species on record: Mus musculus; experiment: Immuno-adjuvant activity in H3N2-split A/Victoria/210/2009 influenza virus-immunized BALB/c mouse model assessed as increase in influenza specific serum IgG2a titer level at 0.001 to 0.1 ug,IM and measured after 14 days by ELISA; assay type: functional, organism-based; details: dose 0.001-0.1 µg, time 14.0 day
[25] = system: Mus musculus; experiment: Immuno-adjuvant activity in H3N2-A/HK/68 influenza virus-immunized BALB/c mouse model assessed as increase in survival rate at 10 ug,INH administered 48hrs prior to influenza challenge and measured after 18 days; assay type: functional; details: dose 10 µg, time 18 day

T1 sequence (O00206 whole entry): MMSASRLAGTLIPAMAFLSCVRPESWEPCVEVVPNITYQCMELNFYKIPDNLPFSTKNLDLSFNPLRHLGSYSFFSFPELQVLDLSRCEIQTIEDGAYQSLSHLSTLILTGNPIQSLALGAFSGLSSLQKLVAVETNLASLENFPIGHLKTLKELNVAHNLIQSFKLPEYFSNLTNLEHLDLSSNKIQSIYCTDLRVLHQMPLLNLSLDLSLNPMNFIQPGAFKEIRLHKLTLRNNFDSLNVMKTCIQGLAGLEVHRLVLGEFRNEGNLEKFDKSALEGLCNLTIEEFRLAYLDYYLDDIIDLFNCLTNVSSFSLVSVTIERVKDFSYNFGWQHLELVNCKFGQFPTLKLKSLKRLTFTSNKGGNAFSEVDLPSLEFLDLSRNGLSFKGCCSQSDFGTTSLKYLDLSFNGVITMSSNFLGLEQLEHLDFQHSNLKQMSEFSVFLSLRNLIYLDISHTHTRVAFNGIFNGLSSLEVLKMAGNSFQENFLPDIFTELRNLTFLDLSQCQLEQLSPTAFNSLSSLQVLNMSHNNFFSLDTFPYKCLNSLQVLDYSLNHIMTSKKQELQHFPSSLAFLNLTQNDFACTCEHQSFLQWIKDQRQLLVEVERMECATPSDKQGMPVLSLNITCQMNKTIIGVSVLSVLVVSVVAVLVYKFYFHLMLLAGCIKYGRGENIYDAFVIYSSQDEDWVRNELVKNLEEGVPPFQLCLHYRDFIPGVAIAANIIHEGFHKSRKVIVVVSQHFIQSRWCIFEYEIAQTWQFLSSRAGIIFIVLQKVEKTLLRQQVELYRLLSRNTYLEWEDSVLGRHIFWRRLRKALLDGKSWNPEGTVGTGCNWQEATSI

| Structure (SMILES) | EC50 [1] [nM] | EC50 [2] [nM] | EC50 [3] [nM] | EC50 [4] [nM] | EC50 [5] [nM] | EC50 [6] [nM] | EC50 [7] [nM] | EC50 [8] [nM] | Activity [9] | Stability [10] | Stability [12] | Activity [15] | Activity [16] | Activity [17] | Activity [18] | Stability [19] | Activity [22] | Activity [23] | also measured |
| --- | --- | --- | --- | --- | --- | --- | --- | --- | --- | --- | --- | --- | --- | --- | --- | --- | --- | --- | --- |
| CCCCCCCCCCCCCC(=O)O[C@H](CCCCCCCCCCC)CC(=O)O[C@@H]1[C@@H](NC(=O)C[C@H](CCCCCCCCCCC)OC(=O)CCCCCCCCCCCCC)[C@H](OC[C@H]2O[C@H](O)[C@H](NC(=O)C[C@H](O)CCCCCCCCCCC)[C@@H](OC(=O)C[C@H](O)CCCCCCCCCCC)[C@@H]2O)O[C@H](CO)[C@H]1OP(=O)(O)O | 6.23 | 1.4 | 0.99 | 1.92 | 0.49 | 10.4 | 0.76 | 2.11 |  |  |  |  |  |  |  |  |  |  |  |
| CCCCCCCCCCCCCCCC(=O)O[C@H](CCCCCCCCCCC)CC(=O)N[C@@H]1[C@@H](O)[C@H](O)[C@@H](CO[C@@H]2O[C@H](CO)[C@@H](OP(=O)(O)O)[C@H](OC(=O)C[C@@H](CCCCCCCCCCC)OC(=O)CCCCCCCCCCCCC)[C@H]2NC(=O)C[C@@H](CCCCCCCCCCC)OC(=O)CCCCCCCCCCC)O[C@@H]1O | 246 | 6.54 | 6.37 | 31.5 | 3.73 | 200 | 23.7 | 42.4 |  |  |  |  |  |  |  |  |  |  |  |
| CCCCCCCCCCC[C@H](CC(=O)N[C@H]1[C@H](OC[C@H](NC(=O)C[C@@H](CCCCCCCCCCC)OCCCCCCCCCC)C(=O)O)O[C@H](CO)[C@@H](OP(=O)(O)O)[C@H]1NC(=O)C[C@@H](CCCCCCCCCCC)OCCCCCCCCCC)OCCCCCCCCCC.CCN(CC)CC | 7.86 | 0.15 | 0.38 | 0.14 | 0.02 | 2.6 | 0.13 | 0.28 | Active | Stable | Stable | Active | Non-Toxic | Dose-Dependent Effect | Active | Stable | Dose-Dependent Effect | Non-Toxic | Activity [11]: Non-Toxic; Activity [13]: Non-Toxic; Activity [14]: Non-Toxic; Survival [20]: 40%; Activity [21]: Non-Toxic; Activity [24]: Dose-Dependent Effect; Survival [25]: 80% |
| CCCCCCCCCCC[C@H](CC(=O)N[C@H]1[C@H](OC[C@H](NC(=O)C[C@@H](CCCCCCCCCCC)OCCCCCCCCCC)C(=O)O)O[C@H](CO)[C@@H](OS(=O)(=O)O)[C@H]1NC(=O)C[C@@H](CCCCCCCCCCC)OCCCCCCCCCC)OCCCCCCCCCC.CCN(CC)CC | 26.3 | 0.68 | 0.65 | 0.46 | 0.04 | 6.88 | 0.24 | 0.97 | Active | Stable | Stable | Active | Non-Toxic | Dose-Dependent Effect | Active | Stable | Dose-Dependent Effect | Non-Toxic |  |
